Source: ChEMBL document CHEMBL1201862, “PubChem BioAssay data set” (2004)
Active and inactive are the calls of the source.

How the values were obtained:
[1] = molecular target: Luciferin 4-monooxygenase (Photinus pyralis, UniProt P08659); assay: firefly luciferase enzyme inhibitors, dose response, biochemical, luminescence (AID 1891)
[2] = Luminescence Cell-Based Dose Confirmation HTS to Identify Inhibitors of Platelet Dense Granule Release. [Related pubchem assays: 1663 (Primary HTS), 1678 (Summary of Project)]; assay type: functional
Cytochrome P450 3A4 = Cytochrome P450 3A4 (Homo sapiens, UniProt P08684);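 further: CYP3A4 tested as one member of a cytochrome P450 panel screen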
Cytochrome P450 2C9 = Cytochrome P450 2C9 (Homo sapiens, UniProt P11712)
[3] = off-target signal loss in HeLa-CEM21 co-culture – HeLa F-luc CTL cells, cherry-picked, counter-screen for HIV-1 Env fusion inhibitor project, dose response (AID 652040); assay type: functional, cell-based;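 further: potency for signal decrease marking cytotoxic or nonspecific inhibition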
[4] = inhibitors of HIV Env-driven cell fusion, dose response, cherry-pick (AID 652057); assay type: functional, cell-based
[5] = ZM109 Env clade C HIV-1 fusion inhibitors, dose response, HeLa effector, CEM target cells, luciferase, cherry-pick (AID 652058); assay type: functional, cell-based
[6] = inhibitors of clade B AD8 Env fusion, dose response, cell-based, cherry-pick (AID 652062); assay type: functional;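 further: luciferase signal from cell-cell fusion driven by HIV-1 clade B AD8 Env; potency is for inhibitors of fusion seen as a drop in luminescence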
[7] = molecular target: T1, Heat shock factor protein 1 (Mus musculus, UniProt P38532); assay: HSF1 potentiators in luciferase reporter cells, confirmation, cell-based, NIH3T3, luminescence, dose retest (AID 435004); assay type: functional;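 further: stress induced by proteasome inhibitor MG132 added 30 min after compound; luciferase reporter driven by HSF1 response element in NIH3T3 cells; actives raise luminescence as potentiators of the MG132 stress response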
T1 sequence (P38532 whole entry): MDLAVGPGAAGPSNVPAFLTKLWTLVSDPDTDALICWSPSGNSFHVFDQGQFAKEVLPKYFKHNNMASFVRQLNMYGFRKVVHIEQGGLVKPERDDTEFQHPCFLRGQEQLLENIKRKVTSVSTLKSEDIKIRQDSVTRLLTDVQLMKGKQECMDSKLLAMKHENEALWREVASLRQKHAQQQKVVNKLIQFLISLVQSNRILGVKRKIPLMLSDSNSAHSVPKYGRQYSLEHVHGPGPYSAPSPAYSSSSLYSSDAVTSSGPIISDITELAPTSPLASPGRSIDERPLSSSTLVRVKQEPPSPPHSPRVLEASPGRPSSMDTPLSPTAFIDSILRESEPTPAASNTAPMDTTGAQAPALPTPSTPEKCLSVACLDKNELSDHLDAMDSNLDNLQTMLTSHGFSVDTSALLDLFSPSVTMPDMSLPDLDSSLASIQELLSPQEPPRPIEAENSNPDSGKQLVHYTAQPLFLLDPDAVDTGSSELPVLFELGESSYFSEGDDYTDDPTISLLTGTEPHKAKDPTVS

Nonstructural protein 1 = Nonstructural protein 1 (Influenza A virus, UniProt Q194T2); assay type: functional, Influenza A virus (A/California/07/2009(H1N1))
Streptococcus = assay: Group A Streptococcus viability loss, dose response, counter-screen for streptokinase expression inhibitor project, luminescence, BacTiterGlo (AID 1915); assay type: functional, organism-based;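 further: potency for reduction of bacterial viability or growth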
[8] = system: Streptococcus sp. 'group A'; assay: growth inhibition of control SK(-) GAS strain, dose response, counter-screen for streptokinase expression inhibitor project, luminescence, kanamycin, BacTiterGlo, confirmation (AID 1900); assay type: functional, organism-based
[9] = Luminescence Cell-Based Dose Response HTS to Identify Activators of Luciferase Translation or Activity in H4 […] Cells. [Related pubchem assays: 1829 (Project Summary), 1814 (Primary HTS)]; assay type: functional
[10] = Luminescence Cell-Based Dose Confirmation HTS to Identify Activators of 5'UTR Stem-Loop Driven Alpha-Synuclein mRNA Translation in H4 Neuroglioblastoma Cells. [Related pubchem assays: 1829 (Project Summary), 1814 (Primary HTS)]; assay type: functional
H4 = assay: Luminescence Cell-Based Dose Response HTS to Identify Activators of 5'UTR Stem-Loop Driven Prion Protein mRNA Translation in H4 Neuroglioblastoma Cells. [Related pubchem assays: 1829 (Project Summary), 1814 (Primary HTS)]; assay type: functional; settings: Homo sapiens
Cytochrome P450 1A2 = molecular target: T2, Cytochrome P450 1A2 (Homo sapiens, UniProt P05177);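 further: PubChem cytochrome P450 panel assay, CYP1A2 panel member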
T2 sequence (P05177 whole entry): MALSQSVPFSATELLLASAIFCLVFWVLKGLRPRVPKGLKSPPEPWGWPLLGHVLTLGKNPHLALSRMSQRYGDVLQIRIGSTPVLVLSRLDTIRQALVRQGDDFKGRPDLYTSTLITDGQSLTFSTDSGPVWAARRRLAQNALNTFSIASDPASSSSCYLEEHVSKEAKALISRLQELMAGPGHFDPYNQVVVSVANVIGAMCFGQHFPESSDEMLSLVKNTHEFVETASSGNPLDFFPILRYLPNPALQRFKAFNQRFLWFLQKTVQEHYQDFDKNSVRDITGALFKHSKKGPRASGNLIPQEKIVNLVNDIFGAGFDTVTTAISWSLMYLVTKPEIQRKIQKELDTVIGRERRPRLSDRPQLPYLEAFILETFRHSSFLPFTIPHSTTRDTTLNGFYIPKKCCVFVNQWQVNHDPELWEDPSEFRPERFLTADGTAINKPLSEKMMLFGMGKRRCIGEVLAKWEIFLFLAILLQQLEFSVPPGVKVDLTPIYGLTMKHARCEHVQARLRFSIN

[11] = microbe, parasite or virus in culture; assay type: functional; settings: Mycobacterium tuberculosis
[12] = HeLa cell cytotoxicity, dose response, cytotoxicity control for MgcRacGAP inhibitor project (AID 624300); assay type: functional
[13] = molecular target: T3, Rac GTPase-activating protein 1 (Homo sapiens, UniProt Q9H0H5); assay: MgcRacGAP GTPase-activating activity inhibitors, confirmation, biochemical, ADP Hunter fluorescence, primary and confirmatory (AID 624330); assay type: functional
T3 sequence (Q9H0H5 whole entry): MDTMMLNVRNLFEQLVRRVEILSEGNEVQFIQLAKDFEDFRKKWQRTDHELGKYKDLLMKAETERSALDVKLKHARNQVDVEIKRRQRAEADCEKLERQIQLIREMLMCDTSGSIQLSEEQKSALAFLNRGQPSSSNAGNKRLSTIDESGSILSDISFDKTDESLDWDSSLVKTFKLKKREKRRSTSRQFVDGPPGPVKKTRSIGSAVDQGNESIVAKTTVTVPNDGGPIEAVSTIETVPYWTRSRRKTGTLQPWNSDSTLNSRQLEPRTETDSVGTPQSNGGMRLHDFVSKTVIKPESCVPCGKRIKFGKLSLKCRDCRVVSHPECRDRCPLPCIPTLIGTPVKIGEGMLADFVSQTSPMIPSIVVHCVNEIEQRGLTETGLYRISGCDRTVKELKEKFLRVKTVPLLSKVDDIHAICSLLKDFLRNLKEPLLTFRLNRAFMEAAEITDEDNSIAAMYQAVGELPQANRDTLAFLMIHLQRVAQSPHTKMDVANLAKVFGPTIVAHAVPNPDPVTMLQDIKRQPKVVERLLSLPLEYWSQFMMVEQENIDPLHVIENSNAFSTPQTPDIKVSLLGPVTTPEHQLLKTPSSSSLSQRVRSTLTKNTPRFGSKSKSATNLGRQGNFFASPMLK

[14] = THP-1 cell cytotoxicity, dose response, cytotoxicity control for Vif-APOBEC3G degradation inhibitor project, THP-1 cells (AID 1117359); assay type: functional; settings: Human immunodeficiency virus 1, THP-1
Cytochrome P450 2D6 = Cytochrome P450 2D6 (Homo sapiens, UniProt P10635);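 further: CYP2D6 member of a cytochrome P450 panel assay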
Cytochrome P450 2C19 = Cytochrome P450 2C19 (Homo sapiens, UniProt P33261); assay: Cytochrome panel assay with activity outcomes. Panel member name: p450-cyp2c19 Compounds with AC50 equal or less than 10 uM are considered active; assay type: functional; settings: read-out: AC50
Cytochrome P450 2C19, sequence (P33261 whole entry): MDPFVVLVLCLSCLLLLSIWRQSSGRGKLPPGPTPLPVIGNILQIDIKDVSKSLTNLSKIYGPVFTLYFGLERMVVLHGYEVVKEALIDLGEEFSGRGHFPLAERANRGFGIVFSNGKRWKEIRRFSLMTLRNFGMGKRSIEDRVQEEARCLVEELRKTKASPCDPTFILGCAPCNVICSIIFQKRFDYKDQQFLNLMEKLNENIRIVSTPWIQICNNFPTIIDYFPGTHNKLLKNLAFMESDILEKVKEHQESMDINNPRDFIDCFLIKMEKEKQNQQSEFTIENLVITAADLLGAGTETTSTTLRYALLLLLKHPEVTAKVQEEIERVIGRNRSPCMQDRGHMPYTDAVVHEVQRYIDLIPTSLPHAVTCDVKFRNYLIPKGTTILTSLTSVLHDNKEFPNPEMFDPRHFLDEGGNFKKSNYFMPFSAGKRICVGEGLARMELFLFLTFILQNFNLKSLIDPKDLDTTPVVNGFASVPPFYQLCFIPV

Cytochrome P450 2C9, sequence (P11712 whole entry, the tested form may be a part): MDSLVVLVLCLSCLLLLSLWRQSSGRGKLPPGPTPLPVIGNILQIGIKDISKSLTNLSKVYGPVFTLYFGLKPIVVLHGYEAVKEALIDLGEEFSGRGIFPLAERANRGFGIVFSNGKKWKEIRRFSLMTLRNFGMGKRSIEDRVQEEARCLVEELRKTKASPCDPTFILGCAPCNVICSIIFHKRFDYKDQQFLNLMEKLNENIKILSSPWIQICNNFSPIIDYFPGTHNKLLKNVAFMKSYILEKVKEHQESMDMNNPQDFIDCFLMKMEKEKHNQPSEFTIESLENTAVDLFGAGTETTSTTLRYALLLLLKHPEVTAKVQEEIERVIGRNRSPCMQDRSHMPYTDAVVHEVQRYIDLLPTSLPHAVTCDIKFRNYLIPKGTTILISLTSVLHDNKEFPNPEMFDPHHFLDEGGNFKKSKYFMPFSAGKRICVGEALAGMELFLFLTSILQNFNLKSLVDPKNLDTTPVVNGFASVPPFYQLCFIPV
Cytochrome P450 3A4, sequence (P08684 whole entry): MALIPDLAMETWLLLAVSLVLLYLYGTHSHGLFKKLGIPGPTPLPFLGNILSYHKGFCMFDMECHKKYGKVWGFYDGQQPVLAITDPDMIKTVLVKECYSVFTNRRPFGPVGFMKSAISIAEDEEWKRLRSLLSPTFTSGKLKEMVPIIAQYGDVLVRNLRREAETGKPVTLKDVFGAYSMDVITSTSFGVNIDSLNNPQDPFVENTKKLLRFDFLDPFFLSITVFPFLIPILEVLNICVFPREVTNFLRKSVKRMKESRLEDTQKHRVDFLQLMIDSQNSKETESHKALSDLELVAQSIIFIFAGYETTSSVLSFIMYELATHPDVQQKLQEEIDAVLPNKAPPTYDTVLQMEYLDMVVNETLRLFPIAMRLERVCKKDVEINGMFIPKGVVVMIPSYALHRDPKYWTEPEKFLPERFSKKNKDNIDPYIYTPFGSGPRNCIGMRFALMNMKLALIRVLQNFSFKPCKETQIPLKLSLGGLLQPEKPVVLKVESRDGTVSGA
Cytochrome P450 2D6, sequence (P10635 whole entry): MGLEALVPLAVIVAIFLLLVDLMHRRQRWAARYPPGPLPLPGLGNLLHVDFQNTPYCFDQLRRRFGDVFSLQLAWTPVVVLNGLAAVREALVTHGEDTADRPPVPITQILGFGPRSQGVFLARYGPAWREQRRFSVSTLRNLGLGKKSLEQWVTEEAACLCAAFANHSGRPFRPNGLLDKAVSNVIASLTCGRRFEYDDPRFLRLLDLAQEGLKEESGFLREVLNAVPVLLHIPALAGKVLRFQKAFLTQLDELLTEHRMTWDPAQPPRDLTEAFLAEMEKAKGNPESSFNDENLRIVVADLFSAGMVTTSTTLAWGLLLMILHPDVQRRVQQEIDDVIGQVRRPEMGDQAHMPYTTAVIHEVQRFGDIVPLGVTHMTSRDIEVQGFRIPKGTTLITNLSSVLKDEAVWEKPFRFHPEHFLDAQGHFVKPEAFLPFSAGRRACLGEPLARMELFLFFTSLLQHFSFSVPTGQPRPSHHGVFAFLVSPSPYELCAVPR
Nonstructural protein 1, sequence (Q194T2 whole entry): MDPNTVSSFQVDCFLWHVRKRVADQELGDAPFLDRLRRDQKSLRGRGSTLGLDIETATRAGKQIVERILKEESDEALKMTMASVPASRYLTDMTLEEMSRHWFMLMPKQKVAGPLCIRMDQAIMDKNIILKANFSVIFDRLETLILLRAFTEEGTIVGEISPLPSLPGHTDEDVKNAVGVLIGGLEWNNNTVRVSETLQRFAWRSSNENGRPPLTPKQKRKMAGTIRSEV
Luciferin 4-monooxygenase, sequence (P08659 whole entry): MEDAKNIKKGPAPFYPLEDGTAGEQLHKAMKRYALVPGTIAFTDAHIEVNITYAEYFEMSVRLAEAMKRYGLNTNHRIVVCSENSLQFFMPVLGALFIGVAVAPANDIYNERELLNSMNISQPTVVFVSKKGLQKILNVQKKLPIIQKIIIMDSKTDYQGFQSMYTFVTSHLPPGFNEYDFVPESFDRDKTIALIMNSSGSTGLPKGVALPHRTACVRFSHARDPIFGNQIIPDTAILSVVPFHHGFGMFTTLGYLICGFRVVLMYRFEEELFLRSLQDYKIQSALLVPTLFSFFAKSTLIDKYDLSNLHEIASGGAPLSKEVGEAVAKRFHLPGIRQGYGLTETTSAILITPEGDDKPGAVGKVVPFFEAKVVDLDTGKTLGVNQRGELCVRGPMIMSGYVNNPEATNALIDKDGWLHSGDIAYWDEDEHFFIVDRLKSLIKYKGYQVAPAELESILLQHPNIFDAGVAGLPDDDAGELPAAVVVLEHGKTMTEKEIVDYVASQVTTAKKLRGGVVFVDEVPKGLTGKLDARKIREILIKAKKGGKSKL

COc1ccccc1C(=O)NN1C(=O)C2C3C=CC(O3)C2C1=O (stereo not drawn)
EC50 [1]: > 112 µM (not active)
EC50 [2]: > 112 µM (not active)
AC50 (Cytochrome P450 3A4): 17.8 µM (inconclusive)
AC50 (Cytochrome P450 2C9): inconclusive

N#Cc1ccc(C(c2nnnn2CCc2ccccc2)N2CCCCCC2)cc1 (stereo not drawn)
AC50 [3]: 20.2 µM (active)
AC50 [4]: 4.92 µM (active)
AC50 [5]: 12.1 µM (active)
AC50 [6]: 10.2 µM (active)

O=C(CCCn1c(=S)[nH]c2ccc(Br)cc2c1=O)NCC1CCCO1 (stereo not drawn)
EC50 [7]: > 260 µM (inactive)
AC50 (Cytochrome P450 3A4): 35.5 µM (inconclusive)
AC50 (Cytochrome P450 2C9): inconclusive

O=C(NC(=S)NNC(=O)c1ccccc1O)c1ccccc1
IC50 (Nonstructural protein 1): 14.2 µM (active)
EC50 (Streptococcus): 8.1 µM (active)
EC50 [8]: 2.04 µM (active)

C(=C\n1nnc2ccccc21)/c1ccc[nH]1
EC50 [9]: 9.95 µM (active)
EC50 [10]: 28.4 µM (active)
EC50 (H4): 32 µM (active)

COc1ccc(Cl)cc1NC(=O)C12CCC(C)(C(=O)O1)C2(C)C (stereo not drawn)
AC50 (Cytochrome P450 1A2): 28.2 µM (inconclusive)
AC50 (Cytochrome P450 2C9): inconclusive

O=C(C1CC1)N1CCCC(c2ccc(Cl)cc2)=N1
CC50 [11]: > 40 µM (active)

Cc1ccc(C(=N)NOC(=O)N2c3ccccc3Sc3ccccc32)cc1
CC50 [11]: > 40 µM (active)
CC50 [12]: 96.4 µM (active)
IC50 [13]: 134 µM (active)

CCC(=O)N1N=C(c2ccc(NS(C)(=O)=O)cc2)CC1c1ccc(C)cc1 (stereo not drawn)
CC50 [14]: > 40 µM (active)

C[C@H]1Cn2cnc(C(=O)N3CCN(c4ccccc4)CC3)c2C(=O)N1
AC50 [3]: 7.64 µM (active)
AC50 [4]: 3.57 µM (active)
AC50 [5]: 6.04 µM (active)
AC50 [6]: 13.4 µM (active)

C/C(CC(=O)NCCCN1CCOCC1)=N\NC(=O)COc1ccc(Cl)cc1
AC50 (Cytochrome P450 2D6): 14.1 µM (inconclusive)
AC50 (Cytochrome P450 2C9): inconclusive
AC50 (Cytochrome P450 2C19): 10 µM (inconclusive)

CCOC(=O)c1c(C)c(/C=N/Nc2ccccc2)n(C)c1C
CC50 [14]: > 40 µM (active)

O=C(N/N=C/c1ccccc1O)C1SCCCS1
IC50 (Nonstructural protein 1): 35.6 µM (active)

COc1ccccc1OCC(=O)N/N=C1/SCC(=O)N1Cc1ccccc1
AC50 (Cytochrome P450 2D6): 22.4 µM (inconclusive)
AC50 (Cytochrome P450 3A4): 0.891 µM (inconclusive)
AC50 (Cytochrome P450 2C9): inconclusive

O=C(CCCN1CC=C(n2c(=O)[nH]c3ccccc32)CC1)c1ccc(F)cc1 [DROPERIDOL]
AC50 (Cytochrome P450 2C9): inconclusive

Cc1cc(O)c2c(c1)C(=O)c1cc(O)cc(O)c1C2=O [EMODIN]
CC50 [11]: 20.1 µM (active)
